Bridge positions count the residues as written; N and C are the ends. Square brackets hold non-standard residues; d marks the D form. Peptide text beside a SMILES is read from it. I, II: the chains in the order shown. Nva(3-Et) = CCC(CC)[C@H](N)C(=O)O; hPhe = N[C@@H](CCc1ccccc1)C(=O)O; tBuAla = CC(C)(C)C[C@H](N)C(=O)O; Cha = N[C@@H](CC1CCCCC1)C(=O)O; hLeu = CC(C)CC[C@H](N)C(=O)O; Nle = CCCC[C@H](N)C(=O)O
Assays:
Frizzled-7 [1] = molecular target: T1, Frizzled-7 (Homo sapiens, UniProt O75084); details: CHO
Description: Binding affinity to recombinant human Frizzled-7 (Gln33 to Leu185 residues)/human IgG1 chimeric protein expressed in CHO cells assessed as association rate constant by SPR assay

Frizzled-7 [2] = molecular target: T1, Frizzled-7; type: cell-based; details: cho
Frizzled-7 [3] = molecular target: T1, Frizzled-7; assay: biochemical; type: cell-based, CHO; details: read-out: Kd
Frizzled-7 [4] = molecular target: T1, Frizzled-7; assay: Inhibition of Frizzled-7 in HEK293 cells expressing Wnt assessed as reduction in Wnt signaling by firefly luciferase reporter gene assay; type: cell-based

Row | Compound | Ka (Frizzled-7 [1]) [×10⁵ /M/s] | Kd (Frizzled-7 [2]) [×10⁻³ /s] | Kd (Frizzled-7 [3]) [nM] | IC50 (Frizzled-7 [4]) [nM]
1 | CC[C@H](C)[C@H](NC(=O)[C@H](Cc1cnc[nH]1)NC(=O)[C@H](CSSC[C@H](NC(=O)[C@H](Cc1c[nH]c2ccccc12)NC(=O)[C@H](CC(C)C)NC(=O)[C@H](CCCCN)NC(=O)[C@H](CC(C)C)NC(=O)[C@H](CC(=O)O)NC(=O)[C@H](CC(=O)O)NC(=O)[C@@H](NC(C)=O)[C@H](C)O)C(=O)N[C@@H](Cc1cnc[nH]1)C(=O)N[C@H](C(=O)N[C@@H](CCSC)C(=O)N[C@@H](Cc1ccc(O)cc1)C(N)=O)[C@@H](C)CC)NC(=O)[C@H](Cc1c[nH]c2ccccc12)NC(=O)[C@H](CC(C)C)NC(=O)[C@H](CCCCN)NC(=O)[C@H](CC(C)C)NC(=O)[C@H](CC(=O)O)NC(=O)[C@H](CC(=O)O)NC(=O)[C@@H](NC(C)=O)[C@H](C)O)C(=O)N[C@@H](CCSC)C(=O)N[C@@H](Cc1ccc(O)cc1)C(N)=O | 103 | 0.46 | 0.045 | 4.8
2 | CC[C@H](C)[C@H](NC(=O)[C@H](Cc1cnc[nH]1)NC(=O)[C@H](CSSC[C@H](NC(=O)[C@H](Cc1c[nH]c2ccccc12)NC(=O)[C@H](CC(C)C)NC(=O)[C@H](CCC(=O)O)NC(=O)[C@H](CC(C)C)NC(=O)[C@H](CC(=O)O)NC(=O)[C@H](CC(=O)O)NC(=O)[C@H](CO)NC(C)=O)C(=O)N[C@@H](Cc1cnc[nH]1)C(=O)N[C@H](C(=O)N[C@@H](CCSC)C(=O)N[C@@H](Cc1ccc(O)cc1)C(N)=O)[C@@H](C)CC)NC(=O)[C@H](Cc1c[nH]c2ccccc12)NC(=O)[C@H](CC(C)C)NC(=O)[C@H](CCC(=O)O)NC(=O)[C@H](CC(C)C)NC(=O)[C@H](CC(=O)O)NC(=O)[C@H](CC(=O)O)NC(=O)[C@H](CO)NC(C)=O)C(=O)N[C@@H](CCSC)C(=O)N[C@@H](Cc1ccc(O)cc1)C(N)=O (I: Ac-SDDLELWCHIMY-NH2 / II: Ac-SDDLELWCHIMY-NH2; disulfide I:8-II:8) | 128 | 0.57 | 0.044 | 7.3
3 | CSCC[C@H](NC(=O)[C@@H](NC(=O)[C@H](Cc1cnc[nH]1)NC(=O)[C@H](CSSC[C@H](NC(=O)[C@H](Cc1c[nH]c2ccccc12)NC(=O)[C@H](Cc1ccccc1)NC(=O)[C@H](CCC(=O)O)NC(=O)[C@H](CC1CCCCC1)NC(=O)[C@H](CC(=O)O)NC(=O)[C@H](CC(=O)O)NC(=O)[C@H](CO)NC(C)=O)C(=O)N[C@@H](Cc1cnc[nH]1)C(=O)N[C@H](C(=O)N[C@@H](CCSC)C(=O)N[C@@H](Cc1ccc(O)cc1)C(N)=O)C(C)C)NC(=O)[C@H](Cc1c[nH]c2ccccc12)NC(=O)[C@H](Cc1ccccc1)NC(=O)[C@H](CCC(=O)O)NC(=O)[C@H](CC1CCCCC1)NC(=O)[C@H](CC(=O)O)NC(=O)[C@H](CC(=O)O)NC(=O)[C@H](CO)NC(C)=O)C(C)C)C(=O)N[C@@H](Cc1ccc(O)cc1)C(N)=O (I: Ac-SDD[Cha]EFWCHVMY-NH2 / II: Ac-SDD[Cha]EFWCHVMY-NH2; disulfide I:8-II:8) | 56.7 | 75.1 | 13.7 | 
4 | CCCC[C@H](NC(=O)[C@H](CC(=O)O)NC(=O)[C@H](CC(=O)O)NC(=O)[C@H](CO)NC(C)=O)C(=O)N[C@@H](CCC(=O)O)C(=O)N[C@@H](Cc1ccccc1)C(=O)N[C@@H](Cc1c[nH]c2ccccc12)C(=O)N[C@@H](CSSC[C@H](NC(=O)[C@H](Cc1c[nH]c2ccccc12)NC(=O)[C@H](Cc1ccccc1)NC(=O)[C@H](CCC(=O)O)NC(=O)[C@H](CCCC)NC(=O)[C@H](CC(=O)O)NC(=O)[C@H](CC(=O)O)NC(=O)[C@H](CO)NC(C)=O)C(=O)N[C@@H](Cc1cnc[nH]1)C(=O)N[C@H](C(=O)N[C@@H](CCSC)C(=O)N[C@@H](Cc1ccc(O)cc1)C(N)=O)C(C)C)C(=O)N[C@@H](Cc1cnc[nH]1)C(=O)N[C@H](C(=O)N[C@@H](CCSC)C(=O)N[C@@H](Cc1ccc(O)cc1)C(N)=O)C(C)C (I: Ac-SDD[Nle]EFWCHVMY-NH2 / II: Ac-SDD[Nle]EFWCHVMY-NH2; disulfide I:8-II:8) | 42.8 | 23.1 | 5.4 | 
5 | CCC(CC)[C@H](NC(=O)[C@H](CC(=O)O)NC(=O)[C@H](CC(=O)O)NC(=O)[C@H](CO)NC(C)=O)C(=O)N[C@@H](CCC(=O)O)C(=O)N[C@@H](Cc1ccccc1)C(=O)N[C@@H](Cc1c[nH]c2ccccc12)C(=O)N[C@@H](CSSC[C@H](NC(=O)[C@H](Cc1c[nH]c2ccccc12)NC(=O)[C@H](Cc1ccccc1)NC(=O)[C@H](CCC(=O)O)NC(=O)[C@@H](NC(=O)[C@H](CC(=O)O)NC(=O)[C@H](CC(=O)O)NC(=O)[C@H](CO)NC(C)=O)C(CC)CC)C(=O)N[C@@H](Cc1cnc[nH]1)C(=O)N[C@H](C(=O)N[C@@H](CCSC)C(=O)N[C@@H](Cc1ccc(O)cc1)C(N)=O)C(C)C)C(=O)N[C@@H](Cc1cnc[nH]1)C(=O)N[C@H](C(=O)N[C@@H](CCSC)C(=O)N[C@@H](Cc1ccc(O)cc1)C(N)=O)C(C)C (I: Ac-SDD[Nva(3-Et)]EFWCHVMY-NH2 / II: Ac-SDD[Nva(3-Et)]EFWCHVMY-NH2; disulfide I:8-II:8) | 73.6 | 29.2 | 3.9 | 
6 | CSCC[C@H](NC(=O)[C@@H](NC(=O)[C@H](Cc1cnc[nH]1)NC(=O)[C@H](CSSC[C@H](NC(=O)[C@H](Cc1c[nH]c2ccccc12)NC(=O)[C@H](Cc1ccccc1)NC(=O)[C@H](CCC(=O)O)NC(=O)[C@H](CCC(C)C)NC(=O)[C@H](CC(=O)O)NC(=O)[C@H](CC(=O)O)NC(=O)[C@H](CO)NC(C)=O)C(=O)N[C@@H](Cc1cnc[nH]1)C(=O)N[C@H](C(=O)N[C@@H](CCSC)C(=O)N[C@@H](Cc1ccc(O)cc1)C(N)=O)C(C)C)NC(=O)[C@H](Cc1c[nH]c2ccccc12)NC(=O)[C@H](Cc1ccccc1)NC(=O)[C@H](CCC(=O)O)NC(=O)[C@H](CCC(C)C)NC(=O)[C@H](CC(=O)O)NC(=O)[C@H](CC(=O)O)NC(=O)[C@H](CO)NC(C)=O)C(C)C)C(=O)N[C@@H](Cc1ccc(O)cc1)C(N)=O (I: Ac-SDD[hLeu]EFWCHVMY-NH2 / II: Ac-SDD[hLeu]EFWCHVMY-NH2; disulfide I:8-II:8) | 10.9 | 123.5 | 115 | 
7 | CSCC[C@H](NC(=O)[C@@H](NC(=O)[C@H](Cc1cnc[nH]1)NC(=O)[C@H](CSSC[C@H](NC(=O)[C@H](Cc1c[nH]c2ccccc12)NC(=O)[C@H](Cc1ccccc1)NC(=O)[C@H](CCC(=O)O)NC(=O)[C@H](CCc1ccccc1)NC(=O)[C@H](CC(=O)O)NC(=O)[C@H](CC(=O)O)NC(=O)[C@H](CO)NC(C)=O)C(=O)N[C@@H](Cc1cnc[nH]1)C(=O)N[C@H](C(=O)N[C@@H](CCSC)C(=O)N[C@@H](Cc1ccc(O)cc1)C(N)=O)C(C)C)NC(=O)[C@H](Cc1c[nH]c2ccccc12)NC(=O)[C@H](Cc1ccccc1)NC(=O)[C@H](CCC(=O)O)NC(=O)[C@H](CCc1ccccc1)NC(=O)[C@H](CC(=O)O)NC(=O)[C@H](CC(=O)O)NC(=O)[C@H](CO)NC(C)=O)C(C)C)C(=O)N[C@@H](Cc1ccc(O)cc1)C(N)=O (I: Ac-SDD[hPhe]EFWCHVMY-NH2 / II: Ac-SDD[hPhe]EFWCHVMY-NH2; disulfide I:8-II:8) | 69.6 | 9.1 | 1.4 | 
8 | CSCC[C@H](NC(=O)[C@@H](NC(=O)[C@H](Cc1cnc[nH]1)NC(=O)[C@H](CSSC[C@H](NC(=O)[C@H](Cc1c[nH]c2ccccc12)NC(=O)[C@H](Cc1ccccc1)NC(=O)[C@H](CCC(=O)O)NC(=O)[C@H](CC(C)(C)C)NC(=O)[C@H](CC(=O)O)NC(=O)[C@H](CC(=O)O)NC(=O)[C@H](CO)NC(C)=O)C(=O)N[C@@H](Cc1cnc[nH]1)C(=O)N[C@H](C(=O)N[C@@H](CCSC)C(=O)N[C@@H](Cc1ccc(O)cc1)C(N)=O)C(C)C)NC(=O)[C@H](Cc1c[nH]c2ccccc12)NC(=O)[C@H](Cc1ccccc1)NC(=O)[C@H](CCC(=O)O)NC(=O)[C@H](CC(C)(C)C)NC(=O)[C@H](CC(=O)O)NC(=O)[C@H](CC(=O)O)NC(=O)[C@H](CO)NC(C)=O)C(C)C)C(=O)N[C@@H](Cc1ccc(O)cc1)C(N)=O (I: Ac-SDD[tBuAla]EFWCHVMY-NH2 / II: Ac-SDD[tBuAla]EFWCHVMY-NH2; disulfide I:8-II:8) | 44 | 0.95 | 0.22 | 
9 | CSCC[C@H](NC(=O)[C@@H](NC(=O)[C@H](Cc1cnc[nH]1)NC(=O)[C@H](CSSC[C@H](NC(=O)[C@H](Cc1c[nH]c2ccccc12)NC(=O)[C@H](Cc1ccccc1)NC(=O)[C@H](CCC(=O)O)NC(=O)[C@H](CC(C)C)NC(=O)[C@H](CC(=O)O)NC(=O)[C@H](CC(=O)O)NC(=O)[C@@H](NC(C)=O)[C@@H](C)O)C(=O)N[C@@H](Cc1cnc[nH]1)C(=O)N[C@H](C(=O)N[C@@H](CCSC)C(=O)N[C@@H](Cc1ccc(O)cc1)C(N)=O)C(C)C)NC(=O)[C@H](Cc1c[nH]c2ccccc12)NC(=O)[C@H](Cc1ccccc1)NC(=O)[C@H](CCC(=O)O)NC(=O)[C@H](CC(C)C)NC(=O)[C@H](CC(=O)O)NC(=O)[C@H](CC(=O)O)NC(=O)[C@@H](NC(C)=O)[C@@H](C)O)C(C)C)C(=O)N[C@@H](Cc1ccc(O)cc1)C(N)=O (I: Ac-TDDLEFWCHVMY-NH2 / II: Ac-TDDLEFWCHVMY-NH2; disulfide I:8-II:8) | 51.5 | 0.72 | 0.14 | 
